PMC11587510, “Aromatic Amino Acid Hydroxylases as Off-Targets of Histone Deacetylase Inhibitors” (ACS Chemical Neuroscience, 2024)
Several values for one entry are separate records, joined by “and”; a condition that tells them apart may be missing. Identical values can stand only once. Like-named read-outs stand apart in the source and are kept apart here.

What was measured:
human PAH = molecular target: T1, human PAH (Homo sapiens, UniProt P00439); experiment: PAH enzyme activity assay (HPLC, L-Tyr); type: biochemical; conditions: best-fit IC50 (± SE), nonlinear regression; N.A. = no activity; read-out: IC50 (μM) PAH
T1 construct: Full-length human TH isoform 1 (TH1), human PAH, human TPH2, and doubly truncated human TPH1; made in house; host or cells: E. coli TB1
T1 sequence (P00439 1-452): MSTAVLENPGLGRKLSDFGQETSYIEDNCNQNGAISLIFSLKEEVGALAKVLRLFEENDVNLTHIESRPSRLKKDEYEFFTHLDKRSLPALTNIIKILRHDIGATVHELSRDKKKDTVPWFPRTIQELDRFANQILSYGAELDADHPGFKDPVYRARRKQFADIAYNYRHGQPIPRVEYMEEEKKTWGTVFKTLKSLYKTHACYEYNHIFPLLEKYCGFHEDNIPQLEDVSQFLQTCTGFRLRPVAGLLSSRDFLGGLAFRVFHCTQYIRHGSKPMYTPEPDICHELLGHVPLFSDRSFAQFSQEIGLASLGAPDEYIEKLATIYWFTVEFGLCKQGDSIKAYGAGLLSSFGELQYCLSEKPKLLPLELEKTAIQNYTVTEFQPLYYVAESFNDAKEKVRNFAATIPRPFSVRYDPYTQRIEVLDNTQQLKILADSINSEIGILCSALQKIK

HDAC 8 = conditions: human recombinant HDAC, cited from earlier work
HDAC 6 = conditions: cited from earlier work
human TPH2 = molecular target: T2, human TPH2 (Homo sapiens, UniProt Q8IWU9); experiment: TPH2 enzyme activity assay (HPLC); type: biochemical; conditions: best-fit IC50 (± SE), nonlinear regression; N.A. = no activity
T2 construct: Full-length human TH isoform 1 (TH1), human PAH, human TPH2, and doubly truncated human TPH1; MBP (cleaved yes); made in house; host or cells: E. coli BL21(DE3)
T2 sequence (Q8IWU9 1-490): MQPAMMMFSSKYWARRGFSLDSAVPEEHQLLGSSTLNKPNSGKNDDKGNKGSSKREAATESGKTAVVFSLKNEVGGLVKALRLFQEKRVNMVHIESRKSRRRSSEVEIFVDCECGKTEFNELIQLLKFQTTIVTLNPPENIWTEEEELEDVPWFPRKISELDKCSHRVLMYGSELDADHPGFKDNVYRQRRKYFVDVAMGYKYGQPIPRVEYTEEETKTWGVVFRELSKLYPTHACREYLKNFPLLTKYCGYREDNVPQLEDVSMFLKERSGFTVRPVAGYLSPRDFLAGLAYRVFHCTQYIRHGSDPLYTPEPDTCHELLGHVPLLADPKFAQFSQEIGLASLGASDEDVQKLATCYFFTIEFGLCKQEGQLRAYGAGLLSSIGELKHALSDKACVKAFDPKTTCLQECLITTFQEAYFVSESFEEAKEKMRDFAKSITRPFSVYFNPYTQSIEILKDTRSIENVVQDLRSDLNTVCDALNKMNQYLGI
Experimental: (§1) TPH1 enzymatic activity assays were performed with the selected hits from the DSF screening in the presence and absence of 50 μM of each compound. The final concentration of DMSO was 0.5% (v/v), and control experiments used 0.5% DMSO in the absence of ligand. Assays were performed in a standard reaction mixture containing 40 mM Hepes pH 7.0, 200 mM NaCl, 0.1 mg/mL catalase, 0.5 mg/mL BSA, 10 μM ferrous ammonium sulfate, and 30 μM L-tryptophan (L-Trp). Compounds were incubated with TPH1 (0.02 mg/mL) in the reaction mixture for 10 min on ice.

human TH isoform 1 (TH1) = molecular target: T3, human TH isoform 1 (TH1) (Homo sapiens, UniProt P07101); experiment: TH enzyme activity assay (HPLC, L-DOPA); type: biochemical; conditions: best-fit IC50 (± SE), nonlinear regression; N.A. = no activity
T3 construct: Full-length human TH isoform 1 (TH1); His6-ZZ fusion partner (one of the two preparations only) (cleaved yes); made in house; host or cells: E. coli BL21(DE3) pLysS (pET3a) or BL21 CodonPlus (pET-ZZ-1a)
Experimental: The activity of purified PAH, TH, TPH1, and TPH2 was measured using high-performance liquid chromatography (HPLC) as previously described.[50],[56],[57]
TH activities were performed in a standard reaction mixture containing 40 mM Hepes (pH 7.0), 0.1 mg/mL catalase, 10 μM ferrous ammonium sulfate, and 50 μM L-Tyr. Compounds were incubated with TH (0.01 mg/mL) in the reaction mixture for 10 min on ice. The enzymatic reaction was initiated by adding 200 μM BH4 and 2 mM DTT (final concentrations) and stopped by precipitation with 2% (v/v) acetic acid in ethanol after 5 min at 37 °C. The product, L-DOPA, was quantified by HPLC utilizing a fluorescence monitor set at 281 and 314 nm for excitation and emission, respectively.
GraphPad Prism (version 10; La Jolla, CA) was used for analyzing the enzyme inhibition data.

[1] = molecular target: T4, doubly truncated human TPH1 (ΔNH102-ΔCOOH402) (Homo sapiens, UniProt P17752); experiment: TPH1 enzyme activity assay (HPLC, 5-OH-Trp); type: biochemical; conditions: for IC50: best-fit IC50 (± SE), nonlinear regression, N.A. = no activity
T4 construct: doubly truncated human TPH1 (ΔNH102-ΔCOOH402); made in house; host or cells: E. coli BL21(DE3)
Experimental: as §1

TPH1 = molecular target: T5, TPH1 (Homo sapiens, UniProt P17752); experiment: Differential scanning fluorimetry (DSF) thermal stability assay; type: binding; conditions: for Tm (°C) ± SD (°C), primary screen: 0.075 mg/mL TPH1, 0.5% DMSO, three independent measurements (a: duplicates); for Kd: estimated from DSF dose-response, 2% DMSO, read-out: apparent KD (μM), dose-response
T5 construct: doubly truncated human TPH1 (ΔNH102-ΔCOOH402); made in house; host or cells: E. coli BL21(DE3)
Experimental: A fluorescence-based thermal stability assay (differential scanning fluorimetry, DSF) was used for testing the effects of HDIs on the thermal stability of TPH1.
For initial high throughput screening (HTS), compounds were prepared at a concentration of 10 mM (in some cases, 5 mM) in 100% DMSO. Initial HTS screening was performed on TPH1 with and without compounds using a LightCycler 480 Real-Time PCR System (Roche Applied Science). TPH1 was diluted to 0.075 mg/mL in 50 mM Tris pH 8.0, 200 mM NaCl, 0.5 mM TCEP, and 5% glycerol with 5x SYPRO Orange. Compounds were added to a final concentration of 50 μM. Controls with 0.5% DMSO were performed on each 384-well microplate. Unfolding curves were recorded from 20 to 95 °C at a scan rate of 2 °C/min and monitored at excitation = 465 nm and emission = 610 nm. Selected hits were validated further by serial dilution from 250 μM to 122 nM, keeping the DMSO concentration constant at 2%.
DSF data were analyzed using HTSDSF Explorer.[55] Melting temperature (Tm) was calculated from the maximum value of the first derivative of the unfolding curve. ΔTm (Tm with compound–averaged Tm in DMSO controls) was plotted for all validated curves and a threshold of 2 °C was set (typically, cutoff at ΔTm = 3-fold the SD of the Tm of the DMSO control).
Preliminary binding constants (KD) were calculated by fitting data to the equation [drawing 1] where ΔH0 is the enthalpy of the unfolding of the protein in the presence of ligand ([L]), and R is the gas constant.

HDAC 1 = conditions: cited from earlier work
[2] = human recombinant HDAC, ref 1 (PMID: 26443078)

T3 sequence (P07101 1-497 isoform P07101-3): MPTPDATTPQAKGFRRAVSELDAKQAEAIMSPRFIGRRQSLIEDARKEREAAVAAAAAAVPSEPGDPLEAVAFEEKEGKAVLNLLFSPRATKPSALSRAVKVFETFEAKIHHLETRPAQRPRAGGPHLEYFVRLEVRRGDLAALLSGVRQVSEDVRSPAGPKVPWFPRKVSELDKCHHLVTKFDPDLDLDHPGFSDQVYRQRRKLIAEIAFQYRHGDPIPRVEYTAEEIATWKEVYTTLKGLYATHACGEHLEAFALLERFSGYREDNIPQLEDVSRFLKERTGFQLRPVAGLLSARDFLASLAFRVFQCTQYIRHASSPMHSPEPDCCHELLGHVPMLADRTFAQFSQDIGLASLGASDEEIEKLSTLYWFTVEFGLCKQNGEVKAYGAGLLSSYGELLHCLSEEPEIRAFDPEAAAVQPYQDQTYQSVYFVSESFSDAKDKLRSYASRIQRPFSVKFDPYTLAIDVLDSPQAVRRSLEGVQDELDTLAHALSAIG
T4 sequence (P17752 102-402, stated change not applied): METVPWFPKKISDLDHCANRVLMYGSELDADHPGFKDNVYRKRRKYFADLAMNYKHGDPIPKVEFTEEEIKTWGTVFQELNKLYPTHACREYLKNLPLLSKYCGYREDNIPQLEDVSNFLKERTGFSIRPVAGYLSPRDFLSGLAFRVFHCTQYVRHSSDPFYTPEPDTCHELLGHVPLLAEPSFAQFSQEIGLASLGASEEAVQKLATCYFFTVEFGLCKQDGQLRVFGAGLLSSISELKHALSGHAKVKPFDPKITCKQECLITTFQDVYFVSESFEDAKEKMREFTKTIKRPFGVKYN
T5 sequence (P17752 102-402): as the sequence (P17752 102-402, stated change not applied) above

Structure (SMILES)	IC50 (human PAH)	IC50 (HDAC 8; ref 4 (PMID: 34392190)) [nM]	HDAC 6 % inhibition @ 1 μM (HDAC 6; @ 1 μM, ref 4 (PMID: 34392190)) [%]	IC50 (human TPH2) [µM]	IC50 (human TH isoform 1 (TH1))	IC50 [1] [µM]	inhibition of TPH1 activity at 50 μM ([1]; compound 50 μM, 0.5% DMSO)	Tm (°C) ± SD (°C), primary screen (TPH1; DSF, 50 μM compound) [°C]	ΔTm (°C) ± SD (°C), primary screen (TPH1; DSF, 50 μM compound, vs averaged Tm of 0.5% DMSO controls) [°C]	Kd (TPH1) [µM]	HDAC 1 % inhibition @ 1 μM (HDAC 1; @ 1 μM, ref 4 (PMID: 34392190)) [%]	IC50 (HDAC 8; ref 1 (PMID: 26443078)) [nM]	IC50 (HDAC 6; [2]) [nM]	inhibition at 50 µM ([1]; compound 50 μM, 0.5% DMSO) [%]	ΔTm at 50 µM (TPH1; DSF, 50 μM compound, vs averaged Tm of 0.5% DMSO controls, read-out: ΔTm (°C) ± SD (°C), primary screen) [°C]	IC50 (HDAC 1; [2]) [nM]
O=C(NO)c1ccc(Cl)c(C(=O)Nc2ccc(Cl)cc2)c1 [EG22, 4-Chloro-3-(4-chlorophenylcarbamoyl)-N-hydroxybenzamide]	0.89 µM and 0.9 µM	180 ± 50	94 ± 4	10.7	14.7 µM	35.8	more than 50%	59.4 ± 0.3	3.9 ± 0.2	15.2	20 ± 1	–	–	–	–	–
Cc1[nH]c2ccccc2c1CCNCc1ccc(/C=C/C(=O)NO)cc1 [panobinostat, reference compound]	0.57 µM and 0.6 µM	–	–	43.6	8.67 µM and 8.7 µM	[…]	–	56.0 ± 0.0	–	15.6	–	[…]	[…]	[…]	[…]	[…]
